Test results: US20180369118A1, “METHODS FOR SPORE REMOVAL” (3M INNOVATIVE PROPERTIES COMPANY, priority 2015, published 2018)

Test system: C.sporogenes spores ATCC 3584
Experiment: In-vitro removal of spores from Vitro-Skin (finger bag collection method)
Settings: Example 4
Excerpt: The in-vitro method was designed to evaluate the removal of microbes from skin using a synthetic skin material from the cosmetic industry, Vitro-skin from IMS inc, Portland MeThis method enables rapid screening of formulations for their propensity to promote release of microbes from skin and may be predictive of in-vivo activity.
The following materials were utilized. C.sporogenes spores ATCC 3584˜1.0×10̂8 CFU/ml; Triton-X 100 sampling buffer (pH 7.4) Filter Sterilized: 0.4 g KH2PO4, 10.1 g Na2HPO4, 1 g Triton-X 100, and 1 L dH2O; D/E neutralizing broth; Fingers from disposable polyethylene gloves (VWR 32915-268); Sterile dH2O (WFI quality water); 3M AC Petrifilm; and 5 ml Falcon tubes; 1.5 ml EPI Centrifuge tubes; Petri Dishes; Vitro-Skin IMS Inc.; and double-sided tape.
The method included the following. Punched-out specified number of Vitro-Skin samples using the ¾″ punch. Attached punch-out Vitro-Skin samples to a Petri-dish or any other sterile flat surface using double-sided tape. Contaminated the Vitro-Skin samples accordingly with 10μl of spores/spore prep (˜1×10̂6 CFU/Sample). Used the pipette tip to spread spores over the surface and used a new pipette tip for each sample. Allowed the samples to dry (˜40 minutes). […]
For best statistical data each test solution was repeated 3 times. […] Counted plates and analyzed data.

## N=C(NCCCCCCNC(=N)NC(=N)Nc1ccc(Cl)cc1)NC(=N)Nc1ccc(Cl)cc1.O=C(O)[C@H](O)[C@@H](O)[C@H](O)[C@H](O)CO.O=C(O)[C@H](O)[C@@H](O)[C@H](O)[C@H](O)CO [CHG, Chlorhexidine gluconate]
  spore removal (in words): poor spore removal
